Data published in paper PMC5218480 (PLoS ONE, 2017).

System: MV-4-11 cells
Assay: Gene expression microarray analysis (Affymetrix PrimeView) and GSEA
Type: cell-based, human
Design: RFU PODN (11730768_x_at) / Fold change /veh PODN (11730768_x_at) / RFU LINC00158 (11744669_a_at) / Fold change /veh LINC00158 (11744669_a_at) / RFU DUSP10 (11751237_a_at) / Fold change /veh DUSP10 (11751237_a_at) / RFU ID3 (11757404_x_at) / Fold change /veh ID3 (11757404_x_at) / RFU PLEKHG5 (11737974_s_at) / Fold change /veh PLEKHG5 (11737974_s_at) / RFU LRRC4B (11730491_at) / Fold change /veh LRRC4B (11730491_at) / RFU GIMAP4 (11747438_a_at) / Fold change /veh GIMAP4 (11747438_a_at) / RFU KRT8 (11758183_x_at) / Fold change /veh KRT8 (11758183_x_at) / RFU CNN1 (11734310_a_at) / Fold change /veh CNN1 (11734310_a_at) / RFU VPS37D (11726825_at) / Fold change /veh VPS37D (11726825_at) / RFU C10orf10 (11716522_x_at) / Fold change /veh C10orf10 (11716522_x_at) / RFU KIR2DL2 /// KIR2DL4 /// KIR2DL5A /// KIR2DL5B /// KIR2DS1 /// KIR2DS2 /// KIR2DS3 /// KIR2DS4 /// KIR3DL3 /// KIR3DL3 /// KIR3DS1 (11738374_at) / Fold change /veh KIR2DL2 /// KIR2DL4 /// KIR2DL5A /// KIR2DL5B /// KIR2DS1 /// KIR2DS2 /// KIR2DS3 /// KIR2DS4 /// KIR3DL3 /// KIR3DL3 /// KIR3DS1 (11738374_at) / RFU C1QL1 (11718748_at) / Fold change /veh C1QL1 (11718748_at) / RFU TMPRSS4 (11747572_a_at) / Fold change /veh TMPRSS4 (11747572_a_at) / RFU HAMP (11756126_x_at) / Fold change /veh HAMP (11756126_x_at) / RFU RNFT2 (11725882_a_at) / Fold change /veh RNFT2 (11725882_a_at) / RFU NR4A2 (11747474_a_at) / Fold change /veh NR4A2 (11747474_a_at) / RFU ABCC12 (11746883_a_at) / Fold change /veh ABCC12 (11746883_a_at) / RFU TMEM136 (11760407_x_at) / Fold change /veh TMEM136 (11760407_x_at) / RFU CLDN22 /// WWC2 (11732394_at) / Fold change /veh CLDN22 /// WWC2 (11732394_at) / RFU HLA-DPB1 (11760878_x_at) / Fold change /veh HLA-DPB1 (11760878_x_at) / RFU SPINT1 (11716480_a_at) / Fold change /veh SPINT1 (11716480_a_at) / RFU GAP43 (11754022_s_at) / Fold change /veh GAP43 (11754022_s_at) / RFU A4GNT (11735810_at) / Fold change /veh A4GNT (11735810_at) / RFU PRB3 (11715151_x_at) / Fold change /veh PRB3 (11715151_x_at) / RFU TUBB4B (11761932_at) / Fold change /veh TUBB4B (11761932_at) / RFU CAPN14 (11732068_a_at) / Fold change /veh CAPN14 (11732068_a_at) / RFU TMCC2 (11721928_a_at) / Fold change /veh TMCC2 (11721928_a_at) / RFU IRGQ (11745062_a_at) / Fold change /veh IRGQ (11745062_a_at) / RFU FAM174B (11720279_a_at) / Fold change /veh FAM174B (11720279_a_at) / RFU TMPRSS4 (11748680_a_at) / Fold change /veh TMPRSS4 (11748680_a_at) / RFU FAM212B (11763350_a_at) / Fold change /veh FAM212B (11763350_a_at) / RFU PLEKHG5 (11743358_a_at) / Fold change /veh PLEKHG5 (11743358_a_at) / RFU ZSCAN30 (11745921_a_at) / Fold change /veh ZSCAN30 (11745921_a_at) / RFU CMKLR1 (11741424_a_at) / Fold change /veh CMKLR1 (11741424_a_at) / RFU LOC101060620 /// MAPK8IP1 (11723275_at) / Fold change /veh LOC101060620 /// MAPK8IP1 (11723275_at) / RFU SPTSSB (11747773_x_at) / Fold change /veh SPTSSB (11747773_x_at) / RFU PRSS12 (11739890_at) / Fold change /veh PRSS12 (11739890_at) / RFU BIN1 (11741810_x_at) / Fold change /veh BIN1 (11741810_x_at) / RFU WNT11 (11732464_a_at) / Fold change /veh WNT11 (11732464_a_at) / RFU C10orf10 (11716521_a_at) / Fold change /veh C10orf10 (11716521_a_at) / RFU C5orf56 (11738089_at) / Fold change /veh C5orf56 (11738089_at) / RFU CYB561 (11721691_x_at) / Fold change /veh CYB561 (11721691_x_at) / RFU ANKRD19P (11752326_a_at) / Fold change /veh ANKRD19P (11752326_a_at) / RFU OR2T12 /// OR2T33 /// OR2T8 (11738714_s_at) / Fold change /veh OR2T12 /// OR2T33 /// OR2T8 (11738714_s_at) / RFU VCAN (11748164_a_at) / Fold change /veh VCAN (11748164_a_at) / RFU JSRP1 (11732532_at) / Fold change /veh JSRP1 (11732532_at) / RFU KRTAP10-11 (11738290_x_at) / Fold change /veh KRTAP10-11 (11738290_x_at) / RFU MYO3A (11730013_a_at) / Fold change /veh MYO3A (11730013_a_at) / RFU EBF3 (11725865_a_at) / Fold change /veh EBF3 (11725865_a_at) / RFU CAMK2N1 (11719241_x_at) / Fold change /veh CAMK2N1 (11719241_x_at) / RFU C5orf56 (11738088_a_at) / Fold change /veh C5orf56 (11738088_a_at) / RFU OLFML3 (11715873_a_at) / Fold change /veh OLFML3 (11715873_a_at) / RFU LOC100653217 /// NTM (11731650_a_at) / Fold change /veh LOC100653217 /// NTM (11731650_a_at) / RFU MAPK11 (11762145_a_at) / Fold change /veh MAPK11 (11762145_a_at) / RFU FIZ1 (11724087_x_at) / Fold change /veh FIZ1 (11724087_x_at) / RFU OASL (11726364_x_at) / Fold change /veh OASL (11726364_x_at) / RFU SOX15 (11748057_x_at) / Fold change /veh SOX15 (11748057_x_at) / RFU CD79A (11719716_a_at) / Fold change /veh CD79A (11719716_a_at) / RFU HIST1H1D (11736915_at) / Fold change /veh HIST1H1D (11736915_at) / RFU CASKIN2 (11723855_a_at) / Fold change /veh CASKIN2 (11723855_a_at) / RFU LOC730098 (11760151_x_at) / Fold change /veh LOC730098 (11760151_x_at) / RFU OR4N2 (11742367_at) / Fold change /veh OR4N2 (11742367_at) / RFU PRRT2 (11749266_a_at) / Fold change /veh PRRT2 (11749266_a_at) / RFU SNX32 (11753110_a_at) / Fold change /veh SNX32 (11753110_a_at) / RFU CDHR5 (11726645_a_at) / Fold change /veh CDHR5 (11726645_a_at) / RFU RCAN1 (11760418_a_at) / Fold change /veh RCAN1 (11760418_a_at) / RFU FAM167A (11723789_a_at) / Fold change /veh FAM167A (11723789_a_at) / RFU FAM26E (11764081_at) / Fold change /veh FAM26E (11764081_at) / RFU ISYNA1 (11749810_s_at) / Fold change /veh ISYNA1 (11749810_s_at) / RFU ACY1 (11761880_at) / Fold change /veh ACY1 (11761880_at) / RFU 11764098_at / Fold change /veh 11764098_at / RFU SAMD14 (11745864_x_at) / Fold change /veh SAMD14 (11745864_x_at) / RFU NPB (11741838_a_at) / Fold change /veh NPB (11741838_a_at) / RFU TMPRSS6 (11731388_a_at) / Fold change /veh TMPRSS6 (11731388_a_at) / RFU KRTAP10-2 (11738614_at) / Fold change /veh KRTAP10-2 (11738614_at) / RFU ARHGAP8 /// PRR5-ARHGAP8 (11727945_x_at) / Fold change /veh ARHGAP8 /// PRR5-ARHGAP8 (11727945_x_at) / RFU KRTAP5-7 /// NADSYN1 (11734609_at) / Fold change /veh KRTAP5-7 /// NADSYN1 (11734609_at) / RFU RASL12 (11751679_a_at) / Fold change /veh RASL12 (11751679_a_at) / RFU CDKN2B (11736163_a_at) / Fold change /veh CDKN2B (11736163_a_at) / RFU PRF1 (11729649_at) / Fold change /veh PRF1 (11729649_at) / RFU, ZNF638 /// ZNF638-IT1 / Fold change vs veh, ZNF638 /// ZNF638-IT1 / RFU, PANK3 / Fold change vs veh, PANK3 / RFU, SH3YL1 / Fold change vs veh, SH3YL1 / RFU, ZEB2 / Fold change vs veh, ZEB2 / RFU, NRIP1 / Fold change vs veh, NRIP1 / RFU, PTTG1IP / Fold change vs veh, PTTG1IP / RFU, CAPN2 / Fold change vs veh, CAPN2 / RFU, MED14 / Fold change vs veh, MED14 / RFU, SNORA58 / Fold change vs veh, SNORA58 / RFU, C1orf63 / Fold change vs veh, C1orf63 / RFU, LRRFIP1 / Fold change vs veh, LRRFIP1 / RFU, NDUFAF7 / Fold change vs veh, NDUFAF7 / RFU, SLC12A2 / Fold change vs veh, SLC12A2 / RFU, IBTK / Fold change vs veh, IBTK / RFU, ESF1 / Fold change vs veh, ESF1 / Fold change vs veh, TMEM50B / RFU, TAOK1 / Fold change vs veh, TAOK1 / RFU, ACBD3 / Fold change vs veh, ACBD3 / RFU, TMA16 / Fold change vs veh, TMA16 / RFU, RWDD3 / Fold change vs veh, RWDD3 / RFU, BCAT1 / Fold change vs veh, BCAT1 / RFU, EDEM3 / Fold change vs veh, EDEM3 / RFU, TMEM33 / Fold change vs veh, TMEM33 / RFU, WDR75 / Fold change vs veh, WDR75 / RFU, AHCTF1 / Fold change vs veh, AHCTF1 / RFU, TFRC / Fold change vs veh, TFRC / RFU, ZDHHC17 / Fold change vs veh, ZDHHC17 / RFU, NOM1 / Fold change vs veh, NOM1 / RFU, ARL8B / Fold change vs veh, ARL8B / RFU, ZBTB11 / Fold change vs veh, ZBTB11 / RFU, TAMM41 / Fold change vs veh, TAMM41 / RFU, KIAA1704 /// LOC100996395 / Fold change vs veh, KIAA1704 /// LOC100996395 / RFU, ING1 / Fold change vs veh, ING1 / RFU, TRMT61B / Fold change vs veh, TRMT61B / RFU, FUBP3 / Fold change vs veh, FUBP3 / RFU, TP53 / Fold change vs veh, TP53 / RFU, TNKS2 / Fold change vs veh, TNKS2 / RFU, ZFP14 / Fold change vs veh, ZFP14 / RFU, ACTR2 / Fold change vs veh, ACTR2 / RFU, PPP3R1 / Fold change vs veh, PPP3R1 / RFU, PIK3R1 / Fold change vs veh, PIK3R1 / RFU, HNRNPA1 / Fold change vs veh, HNRNPA1 / RFU, RNF170 / Fold change vs veh, RNF170 / RFU, ZNF28 / Fold change vs veh, ZNF28 / RFU, RNGTT / Fold change vs veh, RNGTT / RFU, OGT / Fold change vs veh, OGT / RFU, BRD1 / Fold change vs veh, BRD1 / RFU, MARS / Fold change vs veh, MARS / RFU, ZNF655 / Fold change vs veh, ZNF655 / RFU, FAHD1 / Fold change vs veh, FAHD1 / RFU, BDP1 / Fold change vs veh, BDP1 / RFU, LRRCC1 / Fold change vs veh, LRRCC1 / RFU, ARID1A / Fold change vs veh, ARID1A / RFU, ZNF146 / Fold change vs veh, ZNF146 / RFU, ZNF330 / Fold change vs veh, ZNF330 / RFU, GPN3 / Fold change vs veh, GPN3 / RFU, C9orf123 / Fold change vs veh, C9orf123 / RFU, N4BP2L2 / Fold change vs veh, N4BP2L2 / RFU, ARFIP1 / Fold change vs veh, ARFIP1 / RFU, FAM179B / Fold change vs veh, FAM179B / RFU, BCL10 / Fold change vs veh, BCL10 / RFU, UHRF1BP1L / Fold change vs veh, UHRF1BP1L / RFU, BET1 / Fold change vs veh, BET1 / RFU, CNOT2 / Fold change vs veh, CNOT2 / RFU, ZNF268 / Fold change vs veh, ZNF268 / Fold change vs veh, ZNF507 / RFU, DGCR2 / Fold change vs veh, DGCR2 / RFU, WDSUB1 / Fold change vs veh, WDSUB1 / Fold change vs veh, HSP90B1 /// MIR3652 / RFU, ADSS / Fold change vs veh, ADSS / RFU, GK / Fold change vs veh, GK / RFU, ZNF148 / Fold change vs veh, ZNF148 / RFU, TAF9 / Fold change vs veh, TAF9 / RFU, SLC1A5 / Fold change vs veh, SLC1A5 / RFU, SLMO2 / Fold change vs veh, SLMO2 / RFU, ABCC4 / Fold change vs veh, ABCC4 / RFU, LOC101060439 /// RAP1B / Fold change vs veh, LOC101060439 /// RAP1B / RFU, RFX7 / Fold change vs veh, RFX7 / RFU, GTPBP10 / Fold change vs veh, GTPBP10 / RFU, CNEP1R1 / Fold change vs veh, CNEP1R1 / RFU, BIVM-ERCC5 /// ERCC5 / Fold change vs veh, BIVM-ERCC5 /// ERCC5 / RFU, ILF3 / Fold change vs veh, ILF3 / RFU 11762660_at / Fold change /veh 11762660_at / RFU VCAN (11757783_s_at) / Fold change /veh VCAN (11757783_s_at) / RFU DDX43 (11728927_at) / Fold change /veh DDX43 (11728927_at) / RFU KRT8 (11758188_x_at) / Fold change /veh KRT8 (11758188_x_at) / RFU NKD1 (11759106_at) / Fold change /veh NKD1 (11759106_at) / RFU SRD5A1 (11742802_a_at) / Fold change /veh SRD5A1 (11742802_a_at) / RFU TPSAB1 /// TPSB2 (11721975_s_at) / Fold change /veh TPSAB1 /// TPSB2 (11721975_s_at) / RFU GSTM3 (11746129_a_at) / Fold change /veh GSTM3 (11746129_a_at) / RFU IL23R (11737362_x_at) / Fold change /veh IL23R (11737362_x_at) / RFU TMEM51 (11727254_a_at) / Fold change /veh TMEM51 (11727254_a_at) / RFU PIWIL2 (11732686_x_at) / Fold change /veh PIWIL2 (11732686_x_at) / RFU ORM1 (11744905_x_at) / Fold change /veh ORM1 (11744905_x_at) / RFU CCDC152 (11743942_at) / Fold change /veh CCDC152 (11743942_at) / RFU ECM1 (11717891_a_at) / Fold change /veh ECM1 (11717891_a_at) / RFU IL23R (11748794_a_at) / Fold change /veh IL23R (11748794_a_at) / RFU TNFAIP8L3 (11732012_x_at) / Fold change /veh TNFAIP8L3 (11732012_x_at) / RFU MBOAT4 (11741988_at) / Fold change /veh MBOAT4 (11741988_at) / RFU 11764193_at / Fold change /veh 11764193_at / RFU TMEM53 (11763286_at) / Fold change /veh TMEM53 (11763286_at) / RFU MAGEB2 (11727129_at) / Fold change /veh MAGEB2 (11727129_at) / RFU TMEM200A (11744735_a_at) / Fold change /veh TMEM200A (11744735_a_at) / RFU CCDC152 (11751479_a_at) / Fold change /veh CCDC152 (11751479_a_at) / RFU FAM211A (11726209_a_at) / Fold change /veh FAM211A (11726209_a_at) / RFU RGS16 (11746705_a_at) / Fold change /veh RGS16 (11746705_a_at) / RFU VCAN (11755009_s_at) / Fold change /veh VCAN (11755009_s_at) / RFU RHOB (11743442_s_at) / Fold change /veh RHOB (11743442_s_at) / RFU RGS16 (11720943_a_at) / Fold change /veh RGS16 (11720943_a_at) / RFU RGS16 (11720944_at) / Fold change /veh RGS16 (11720944_at) / RFU, VPS4B / Fold change vs veh, VPS4B / RFU, CREB1 / Fold change vs veh, CREB1 / RFU, DNAJC13 / Fold change vs veh, DNAJC13 / RFU, GNAQ / Fold change vs veh, GNAQ / RFU, CDK5R1 / Fold change vs veh, CDK5R1 / RFU, ZRANB3 / Fold change vs veh, ZRANB3 / RFU, CUL4A / Fold change vs veh, CUL4A / RFU, CCNY / Fold change vs veh, CCNY / RFU, UFL1 / Fold change vs veh, UFL1 / RFU, COG3 / Fold change vs veh, COG3 / RFU, DIAPH2 / Fold change vs veh, DIAPH2 / RFU, SKA2 / Fold change vs veh, SKA2 / RFU, AFF3 / Fold change vs veh, AFF3 / RFU, LMF1 / Fold change vs veh, LMF1 / RFU, IPO11 / Fold change vs veh, IPO11 / RFU, DFFB / Fold change vs veh, DFFB / RFU, FOXP1 / Fold change vs veh, FOXP1 / RFU, CARD8 / Fold change vs veh, CARD8 / RFU, STRN3 / Fold change vs veh, STRN3 / RFU, ADK / Fold change vs veh, ADK / RFU, RASSF2 / Fold change vs veh, RASSF2 / RFU, WIPF1 / Fold change vs veh, WIPF1 / RFU, LARP1B / Fold change vs veh, LARP1B / RFU, RASA1 / Fold change vs veh, RASA1 / RFU, RB1 / Fold change vs veh, RB1 / RFU, PPFIA1 / Fold change vs veh, PPFIA1 / RFU, MAT2A / Fold change vs veh, MAT2A / RFU, CCT5 / Fold change vs veh, CCT5 / RFU, WDR92 / Fold change vs veh, WDR92 / RFU, CUX1 / Fold change vs veh, CUX1 / RFU, TTC7A / Fold change vs veh, TTC7A / RFU, TMEM135 / Fold change vs veh, TMEM135 / RFU, DEPTOR / Fold change vs veh, DEPTOR / RFU, CPM / Fold change vs veh, CPM / RFU, DNAJB6 / Fold change vs veh, DNAJB6 / RFU, CACNA2D3 / Fold change vs veh, CACNA2D3 / RFU, DTX4 / Fold change vs veh, DTX4 / RFU, TFCP2 / Fold change vs veh, TFCP2 / RFU, GMCL1 /// GMCL1P1 / Fold change vs veh, GMCL1 /// GMCL1P1 / RFU, AEBP2 / Fold change vs veh, AEBP2 / RFU, SNHG1 /// SNORD22 /// SNORD25 /// SNORD26 /// SNORD27 /// SNORD28 /// SNORD29 /// SNORD31 / Fold change vs veh, SNHG1 /// SNORD22 /// SNORD25 /// SNORD26 /// SNORD27 /// SNORD28 /// SNORD29 /// SNORD31 / Fold change (Aza/veh), C12orf56 (ProbeSet 11735607_a_at) / Fold change (ACY-1035/veh), C12orf56 (ProbeSet 11735607_a_at) / Fold change (Aza/veh), FGFR1OP (ProbeSet 11751329_s_at) / Fold change (ACY-1035/veh), FGFR1OP (ProbeSet 11751329_s_at) / Fold change (Aza/veh), VPS36 (ProbeSet 11739960_a_at) / Fold change (ACY-1035/veh), VPS36 (ProbeSet 11739960_a_at) / RFU SYPL1 (11715823_x_at) / Fold change /veh SYPL1 (11715823_x_at) / RFU IGFBP7 (11715501_s_at) / Fold change /veh IGFBP7 (11715501_s_at) / RFU REEP3 (11722064_at) / Fold change /veh REEP3 (11722064_at) / RFU IGLL1 (11728026_x_at) / Fold change /veh IGLL1 (11728026_x_at): dose or concentration left out as unconfirmed
Conditions: MV-4-11 cells, 48 hours

## Nc1ccc(-c2cccs2)cc1NC(=O)c1ccc2c(c1)cc(C1CC1)n2CCN1CCOCC1 [ACY-1035]
  Fold change /veh OR4N2 (11742367_at): 1.06
